Results reported in patent US20250382297A1, “INHIBITORS OF FGFR2 AND FGFR3 AND USES THEREOF” (Insilico Medicine IP Limited, priority 2022, published 2025).
Like-named read-outs stand apart in the source and are kept apart here.

Legend:
FGFR3 = FGFR3 (Homo sapiens (Human), UniProt P22607); experiment: FGFR biochemical assay (LanthaScreen TR-FRET kinase assay), FGFR3
Description: (§1) Convert Ratio values to percent inhibition values (Percent inhibition=(max−sample Ratio)/(max−min)*100) where “min” means the Ratio of no enzyme control and “max” means the Ratio of DMSO control. • Data are analyzed and curve fitting is performed by XLFit Excel add-in version 5.4.0.8. The IC50 calculation equation is: Y=Bottom+(Top-Bottom)/(1+ (IC50/X)^HillSlope.

FGFR1 = FGFR1 (Homo sapiens (Human), UniProt P11362); experiment: FGFR biochemical assay (LanthaScreen TR-FRET kinase assay), FGFR1
Description: as §1

FGFR2 = FGFR2 (Homo sapiens (Human), UniProt P21802); experiment: FGFR biochemical assay (LanthaScreen TR-FRET kinase assay), FGFR2
Description: as §1

[1] = read-out: FGFR2 IC50, * incubation at room temperature for 60 minutes before addition of substrate solution, ATP 22 μM, FGFR2 0.01 nM
[2] = read-out: FGFR2 IC50, incubation with enzyme at room temperature for 10 minutes before substrate, ATP 22 μM, FGFR2 0.01 nM
[3] = read-out: FGFR1 IC50, * incubation at room temperature for 60 minutes before addition of substrate solution, ATP 28 μM, FGFR1 0.01 nM

FGFR2, sequence (P21802 22-821): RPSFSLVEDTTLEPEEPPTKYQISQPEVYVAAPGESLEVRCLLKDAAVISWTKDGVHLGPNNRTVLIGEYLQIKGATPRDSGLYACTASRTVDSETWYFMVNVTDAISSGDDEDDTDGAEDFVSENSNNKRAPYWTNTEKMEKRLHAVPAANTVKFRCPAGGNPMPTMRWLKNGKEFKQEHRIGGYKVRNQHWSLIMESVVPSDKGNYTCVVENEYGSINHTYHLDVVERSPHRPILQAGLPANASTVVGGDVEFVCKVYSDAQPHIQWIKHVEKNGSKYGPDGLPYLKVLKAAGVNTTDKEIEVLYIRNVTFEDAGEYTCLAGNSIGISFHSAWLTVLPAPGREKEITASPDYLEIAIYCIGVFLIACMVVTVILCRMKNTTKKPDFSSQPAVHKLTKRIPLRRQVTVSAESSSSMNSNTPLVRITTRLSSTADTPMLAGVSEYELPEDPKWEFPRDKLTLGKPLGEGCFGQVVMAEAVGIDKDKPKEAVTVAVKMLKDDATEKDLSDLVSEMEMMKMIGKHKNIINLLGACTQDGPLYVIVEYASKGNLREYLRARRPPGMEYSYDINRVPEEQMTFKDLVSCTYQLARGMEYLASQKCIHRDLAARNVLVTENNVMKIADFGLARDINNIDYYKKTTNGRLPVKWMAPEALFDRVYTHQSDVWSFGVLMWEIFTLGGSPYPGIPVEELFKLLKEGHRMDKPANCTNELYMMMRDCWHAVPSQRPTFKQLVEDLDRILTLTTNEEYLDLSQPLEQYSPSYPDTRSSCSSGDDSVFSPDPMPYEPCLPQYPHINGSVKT
FGFR1, sequence (P11362 22-822): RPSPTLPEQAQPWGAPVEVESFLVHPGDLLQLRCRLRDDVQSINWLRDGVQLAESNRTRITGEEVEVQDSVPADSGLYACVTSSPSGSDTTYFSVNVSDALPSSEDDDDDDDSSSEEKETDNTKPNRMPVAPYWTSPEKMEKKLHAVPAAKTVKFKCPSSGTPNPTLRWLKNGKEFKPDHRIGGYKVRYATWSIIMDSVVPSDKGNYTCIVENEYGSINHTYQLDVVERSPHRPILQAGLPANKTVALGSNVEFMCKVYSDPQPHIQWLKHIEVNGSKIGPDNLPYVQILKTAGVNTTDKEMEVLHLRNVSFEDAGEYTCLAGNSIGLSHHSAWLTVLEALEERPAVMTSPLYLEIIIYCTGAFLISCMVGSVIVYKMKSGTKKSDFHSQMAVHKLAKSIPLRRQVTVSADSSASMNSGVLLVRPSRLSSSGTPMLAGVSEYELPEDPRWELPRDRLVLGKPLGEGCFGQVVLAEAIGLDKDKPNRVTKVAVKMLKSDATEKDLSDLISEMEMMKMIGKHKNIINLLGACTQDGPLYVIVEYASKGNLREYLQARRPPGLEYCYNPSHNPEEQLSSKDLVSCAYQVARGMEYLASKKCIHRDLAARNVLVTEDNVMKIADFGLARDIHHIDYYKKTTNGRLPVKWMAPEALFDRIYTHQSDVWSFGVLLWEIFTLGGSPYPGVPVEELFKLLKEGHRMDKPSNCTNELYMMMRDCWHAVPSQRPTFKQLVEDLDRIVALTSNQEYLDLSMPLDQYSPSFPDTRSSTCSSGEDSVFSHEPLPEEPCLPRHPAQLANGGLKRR
FGFR3, sequence (P22607 23-806): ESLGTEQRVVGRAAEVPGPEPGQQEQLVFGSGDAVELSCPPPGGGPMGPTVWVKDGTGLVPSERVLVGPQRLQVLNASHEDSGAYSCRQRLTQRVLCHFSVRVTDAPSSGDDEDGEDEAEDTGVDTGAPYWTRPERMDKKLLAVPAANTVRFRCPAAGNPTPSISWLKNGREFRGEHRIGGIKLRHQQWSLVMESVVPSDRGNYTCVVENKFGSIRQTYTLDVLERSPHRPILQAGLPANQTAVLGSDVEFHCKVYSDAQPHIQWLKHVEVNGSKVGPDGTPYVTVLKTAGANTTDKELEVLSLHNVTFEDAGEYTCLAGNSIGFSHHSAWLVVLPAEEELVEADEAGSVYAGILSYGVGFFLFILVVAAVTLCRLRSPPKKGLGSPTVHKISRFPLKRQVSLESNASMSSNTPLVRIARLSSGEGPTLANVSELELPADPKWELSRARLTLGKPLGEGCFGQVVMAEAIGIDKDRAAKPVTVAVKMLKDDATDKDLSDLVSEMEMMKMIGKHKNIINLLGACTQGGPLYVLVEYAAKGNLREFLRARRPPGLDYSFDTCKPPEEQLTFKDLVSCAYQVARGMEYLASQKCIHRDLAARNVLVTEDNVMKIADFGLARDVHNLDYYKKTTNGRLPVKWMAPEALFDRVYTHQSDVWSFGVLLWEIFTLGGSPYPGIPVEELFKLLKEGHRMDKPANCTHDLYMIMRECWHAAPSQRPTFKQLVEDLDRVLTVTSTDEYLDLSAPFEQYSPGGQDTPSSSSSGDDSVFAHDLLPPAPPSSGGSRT

C=C(F)C(=O)Nc1ccc(-c2c(-c3ccc(Oc4nccc(C)n4)c(F)c3)c(C(N)=O)c3cc(-c4cnn(C)c4)ncn23)cc1 [Example 86, 6-(3-fluoro-4-((4-methylpyrimidin-2-yl)oxy)phenyl)-7-(4-(2-fluoroacrylamido)phenyl)-3-(1-methyl-1H-pyrazol-4-yl)pyrrolo[1,2-c]pyrimidine-5-carboxamide]
IC50 (FGFR3): 10 to 100 nM | IC50 (FGFR1): 10 to 100 nM | IC50 (FGFR2; [1]): < 10 nM

C=CC(=O)N1CC=C(c2c(-c3ccc(Oc4nccc(C)n4)c(F)c3)c(C(N)=O)c3cnc(C)cn23)CC1 [Example 101, 6-(1-acryloyl-1,2,3,6-tetrahydropyridin-4-yl)-7-(3-fluoro-4-((4-methylpyrimidin-2-yl)oxy)phenyl)-3-methylpyrrolo[1,2-a]pyrazine-8-carboxamide]
IC50 (FGFR3): 10 to 100 nM | IC50 (FGFR1): 10 to 100 nM | IC50 (FGFR2): 10 to 100 nM

C=C(F)C(=O)Nc1ccc(-c2c(-c3ccc(Oc4nccc(C)n4)c(F)c3)c(C(N)=O)c3cnc(C)cn23)cn1 [Example 51, 7-(3-fluoro-4-((4-methylpyrimidin-2-yl)oxy)phenyl)-6-(6-(2-fluoroacrylamido)pyridin-3-yl)-3-methylpyrrolo[1,2-a]pyrazine-8-carboxamide]
IC50 (FGFR3): 10 to 100 nM | IC50 (FGFR1): 10 to 100 nM | IC50 (FGFR2; [2]): < 10 nM

C=C(F)C(=O)Nc1ccc(-c2c(-c3cc(F)c(Oc4nccc(C)n4)c(F)c3)c(C(N)=O)c3cnc(C)cn23)cc1 [Example 48, 7-(3,5-difluoro-4-((4-methylpyrimidin-2-yl)oxy)phenyl)-6-(4-(2-fluoroacrylamido)phenyl)-3-methylpyrrolo[1,2-a]pyrazine-8-carboxamide]
IC50 (FGFR3): 10 to 100 nM | IC50 (FGFR1): 100 to 1000 nM | IC50 (FGFR2): 10 to 100 nM

C=CC(=O)Nc1ccc(-c2c(-c3ccc(Oc4cccc(C)n4)cc3)c(C(N)=O)c3cnc(S(=O)(=O)NC)cn23)cc1 [Example 18, 6-(4-acrylamidophenyl)-7-(4-((6-methylpyridin-2-yl)oxy)phenyl)-3-(N-methylsulfamoyl)pyrrolo[1,2-a]pyrazine-8-carboxamide]
IC50 (FGFR3): 10 to 100 nM | IC50 (FGFR1): 100 to 1000 nM | IC50 (FGFR2; [2]): < 10 nM

C=CC(=O)Nc1ccc(-c2c(-c3ccc(OC)cc3)c(C(N)=O)c3cnccn23)cc1 [Example 22, 6-(4-acrylamidophenyl)-7-(4-methoxyphenyl)pyrrolo[1,2-a]pyrazine-8-carboxamide]
IC50 (FGFR3): 100 to 1000 nM | IC50 (FGFR1): 100 to 1000 nM | IC50 (FGFR2): 10 to 100 nM

C=C(F)C(=O)Nc1ccc(-c2c(-c3ccc(Oc4nccc(C)n4)cc3)c(C(N)=O)c3cnc(NC(C)=O)cn23)cc1 [Example 83, 3-acetamido-6-(4-(2-fluoroacrylamido)phenyl)-7-(4-((4-methylpyrimidin-2-yl)oxy)phenyl)pyrrolo[1,2-a]pyrazine-8-carboxamide]
IC50 (FGFR3): 10 to 100 nM | IC50 (FGFR1): 100 to 1000 nM | IC50 (FGFR2; [1]): < 10 nM

C=C(F)C(=O)Nc1ccc(-c2c(-c3ccc(Oc4nccc(C)n4)c(F)c3)c(C(N)=O)c3ccc(C)nn23)cc1 [Example 93, 6-(3-fluoro-4-((4-methylpyrimidin-2-yl)oxy)phenyl)-7-(4-(2-fluoroacrylamido)phenyl)-2-methylpyrrolo[1,2-b]pyridazine-5-carboxamide]
IC50 (FGFR3): 10 to 100 nM | IC50 (FGFR1): 100 to 1000 nM | IC50 (FGFR2): 10 to 100 nM

C=C(F)C(=O)Nc1ccc(-c2c(-c3ccc(Oc4ncc(F)c(C)n4)c(F)c3)c(C(N)=O)c3cnc(C)cn23)cc1 [Example 54, 7-(3-fluoro-4-((5-fluoro-4-methylpyrimidin-2-yl)oxy)phenyl)-6-(4-(2-fluoroacrylamido)phenyl)-3-methylpyrrolo[1,2-a]pyrazine-8-carboxamide]
IC50 (FGFR3): 10 to 100 nM | IC50 (FGFR1): 100 to 1000 nM | IC50 (FGFR2): 10 to 100 nM

C=CC(=O)N1CC2(CC=C(c3c(-c4ccc(Oc5nccc(C)n5)cc4)c(C(N)=O)c4cnc(C)cn34)CC2)C1 [Example 70, 6-(2-acryloyl-2-azaspiro[3.5]non-6-en-7-yl)-3-methyl-7-(4-((4-methylpyrimidin-2-yl)oxy)phenyl)pyrrolo[1,2-a]pyrazine-8-carboxamide]
IC50 (FGFR3): 100 to 1000 nM | IC50 (FGFR1): 100 to 1000 nM | IC50 (FGFR2): 100 to 1000 nM

C=CC(=O)Nc1ccc(-c2c(-c3ccc(C(=O)N4CC5(CCC5)C4)cc3)c(C(N)=O)c3cnccn23)cc1 [Example 30, 7-(4-(2-azaspiro[3.3]heptane-2-carbonyl)phenyl)-6-(4-acrylamidophenyl)pyrrolo[1,2-a]pyrazine-8-carboxamide]
IC50 (FGFR3): 100 to 1000 nM | IC50 (FGFR1): 100 to 1000 nM | IC50 (FGFR2): 10 to 100 nM

C=CC(=O)Nc1ccc(-c2c(-c3ccc(Oc4cccc(C)n4)c(OC)c3)c(C(N)=O)c3cnccn23)cc1 [Example 25, 6-(4-acrylamidophenyl)-7-(3-methoxy-4-((6-methylpyridin-2-yl)oxy)phenyl)pyrrolo[1,2-a]pyrazine-8-carboxamide]
IC50 (FGFR3): 10 to 100 nM | IC50 (FGFR1): 100 to 1000 nM | IC50 (FGFR2; [2]): < 10 nM

C=C(F)C(=O)N1CCc2cc(-c3c(-c4ccc(Oc5nccc(C)n5)c(F)c4)c(C(N)=O)c4ccc(C)nn34)ccc21 [Example 95, 6-(3-fluoro-4-((4-methylpyrimidin-2-yl)oxy)phenyl)-7-(1-(2-fluoroacryloyl)indolin-5-yl)-2-methylpyrrolo[1,2-b]pyridazine-5-carboxamide]
IC50 (FGFR3): 100 to 1000 nM | IC50 (FGFR1; [3]): > 1000 nM | IC50 (FGFR2): 10 to 100 nM

C=C(F)C(=O)N1CCc2cc(-c3c(-c4ccc(Oc5nccc(C)n5)c(F)c4)c(C(N)=O)c4cnc(C)cn34)ccc21 [Example 72, 7-(3-fluoro-4-((4-methylpyrimidin-2-yl)oxy)phenyl)-6-(1-(2-fluoroacryloyl)indolin-5-yl)-3-methylpyrrolo[1,2-a]pyrazine-8-carboxamide]
IC50 (FGFR3): 10 to 100 nM | IC50 (FGFR1): 100 to 1000 nM | IC50 (FGFR2; [1]): < 10 nM

C=CC(=O)Nc1ccc(-c2c(-c3ccc(Oc4cccc(C)n4)cc3)c(C(N)=O)c3cnccn23)cn1 [Example 3, 6-(6-acrylamidopyridin-3-yl)-7-(4-((6-methylpyridin-2-yl)oxy)phenyl)pyrrolo[1,2-a]pyrazine-8-carboxamide]
IC50 (FGFR3; read-out: FGFR3 IC50, incubation with enzyme at room temperature for 10 minutes before substrate, ATP 35 μM, FGFR3 0.1 nM): < 10 nM | IC50 (FGFR1; read-out: FGFR1 IC50, incubation with enzyme at room temperature for 10 minutes before substrate, ATP 28 μM, FGFR1 0.01 nM): < 10 nM | IC50 (FGFR2; [2]): < 10 nM

C=CC(=O)Nc1ccc(-c2c(-c3ccc(Oc4ccccn4)cc3)c(C(N)=O)c3cnccn23)cc1 [Example 26, 6-(4-acrylamidophenyl)-7-(4-(pyridin-2-yloxy)phenyl)pyrrolo[1,2-a]pyrazine-8-carboxamide]
IC50 (FGFR3): 10 to 100 nM | IC50 (FGFR1): 100 to 1000 nM | IC50 (FGFR2; [2]): < 10 nM

C=C(F)C(=O)N1CC2(CC2)c2cc(-c3c(-c4ccc(Oc5nccc(C)n5)c(F)c4)c(C(N)=O)c4cnc(C)cn34)c(F)cc21 [Example 102, 6-(6′-fluoro-1′-(2-fluoroacryloyl)spiro[cyclopropane-1,3′-indolin]-5′-yl)-7-(3-fluoro-4-((4-methylpyrimidin-2-yl)oxy)phenyl)-3-methylpyrrolo[1,2-a]pyrazine-8-carboxamide]
IC50 (FGFR3): 10 to 100 nM | IC50 (FGFR1; [3]): < 10 nM | IC50 (FGFR2): 10 to 100 nM

C=C(F)C(=O)Nc1ccc(-c2c(-c3ccc(Oc4nccc(C)n4)c(F)c3)c(C(N)=O)c3cc(-c4cnn(C)c4)ncn23)c(F)c1 [Example 91, 6-(3-fluoro-4-((4-methylpyrimidin-2-yl)oxy)phenyl)-7-(2-fluoro-4-(2-fluoroacrylamido)phenyl)-3-(1-methyl-1H-pyrazol-4-yl)pyrrolo[1,2-c]pyrimidine-5-carboxamide]
IC50 (FGFR3; read-out: FGFR3 IC50, * incubation at room temperature for 60 minutes before addition of substrate solution, ATP 35 μM, FGFR3 0.1 nM): < 10 nM | IC50 (FGFR1): 10 to 100 nM | IC50 (FGFR2; [1]): < 10 nM
